From ChEMBL document CHEMBL5036349, “Development of potent dual PDK1/AurA kinase inhibitors for cancer therapy: Lead-optimization, structural insights, and ADME-Tox profile” (Eur J Med Chem, 2021)
One block for each compound: values may come before it. Activity calls are given as the source filed them. The calls are words filed in the database; no cut-off is given here.

Key:
[1] = Cytotoxicity against hTERT cells at 10 uM measured after 24 to 48 hrs by Cell-titer glo assay relative to control; format: cell-based; settings: human, time 24-48 hrs
[2] = biological target: {'v': 'CYP2C9', 'o': 'p', 'q': 'Inhibition of CYP2C9 (unknown origin)'} (Homo sapiens, UniProt P11712); experiment: Inhibition of CYP2C9 (unknown origin) at 10 uM pre-incubated for 30 min followed by addition of NADPH and measured after 30 min by Luminescence based plate reader method relative to control; format: ADME; settings: time 60 min
[3] = biological target: {'v': 'CYP3A4', 'o': 'p', 'q': 'Inhibition of CYP3A4 (unknown origin)'} (Homo sapiens, UniProt P08684); experiment: Inhibition of CYP3A4 (unknown origin) at 10 uM pre-incubated for 30 min followed by addition of NADPH and measured after 30 min by Luminescence based plate reader method relative to control; format: ADME; settings: time 60 min
[4] = biological target: T1, Histone deacetylase 8 (Homo sapiens) (UniProt Q9BY41); experiment: Inhibition on human recombinant HDAC8 at 10 uM measured after 20 min by luminescence glo assay
T1 sequence (whole entry): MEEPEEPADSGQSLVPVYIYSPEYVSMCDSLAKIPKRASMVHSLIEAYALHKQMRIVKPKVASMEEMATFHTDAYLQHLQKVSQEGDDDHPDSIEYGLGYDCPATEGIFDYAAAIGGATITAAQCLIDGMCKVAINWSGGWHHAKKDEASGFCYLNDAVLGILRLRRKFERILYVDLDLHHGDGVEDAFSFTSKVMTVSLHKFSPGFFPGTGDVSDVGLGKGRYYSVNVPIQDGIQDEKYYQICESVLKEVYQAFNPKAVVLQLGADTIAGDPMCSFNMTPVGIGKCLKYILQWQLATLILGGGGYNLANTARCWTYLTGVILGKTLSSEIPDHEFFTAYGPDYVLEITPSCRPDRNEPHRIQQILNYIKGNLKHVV

[5] = biological target: Histone deacetylase 9 (Homo sapiens) (UniProt Q9UKV0); experiment: Inhibition on human recombinant HDAC9 at 10 uM measured after 20 min by luminescence glo assay
HCT-116 [6] = experiment: Cytotoxicity against human HCT-116 cells at 30 uM assessed as cell proliferation rate measured after 72 hrs by MTT assay relative to control; format: functional
MCF7 = experiment: Cytotoxicity against human MCF7 cells measured after 72 hrs by MTT assay; format: functional, cell-based; settings: MCF7, 72 h
CAKI-1 = experiment: Cytotoxicity against human CAKI-1 cells measured after 72 hrs by MTT assay; format: functional, cell-based; settings: CAKI-1, 72 h
786-0 = experiment: Cytotoxicity against human 786-0 cells measured after 72 hrs by MTT assay; format: functional, cell-based; settings: 786-0, 72 h
IGROV-1 = experiment: Cytotoxicity against human IGROV-1 cells measured after 72 hrs by MTT assay; format: functional, cell-based; settings: IGROV-1, 72 h
PC-3 = experiment: Cytotoxicity against human PC-3 cells measured after 72 hrs by MTT assay; format: functional, cell-based; settings: PC-3, 72 h
HCT-116 [7] = experiment: Cytotoxicity against human HCT-116 cells measured after 72 hrs by MTT assay; format: functional, cell-based; settings: HCT-116, 72 h
NCI-H69 = experiment: Cytotoxicity against human NCI-H69 cells measured after 72 hrs by MTT assay; format: functional, cell-based; settings: NCI-H69, 72 h
NCI-H82 = experiment: Cytotoxicity against human NCI-H82 cells measured after 72 hrs by MTT assay; format: functional, cell-based; settings: NCI-H82, 72 h
TC-32 = experiment: Cytotoxicity against human TC-32 cells measured after 72 hrs by MTT assay; format: functional, cell-based; settings: TC-32, 72 h
SK-N-MC [8] = experiment: Cytotoxicity against human SK-N-MC cells measured after 72 hrs by MTT assay; format: functional, cell-based
[9] = Cytotoxicity against human 6647 cells measured after 72 hrs by MTT assay; format: functional, cell-based; settings: Homo sapiens, 6647, 72 h
[10] = Cytotoxicity against human TC71 cells measured after 72 hrs by MTT assay; format: functional, cell-based; settings: TC-71, 72 h
A673 = experiment: Cytotoxicity against human A673 cells measured after 72 hrs by MTT assay; format: functional, cell-based; settings: A673, 72 h
SK-N-MC [11] = experiment: Cytotoxicity against human SK-N-MC cells at 30 uM assessed as cell proliferation rate measured after 72 hrs by MTT assay relative to control; format: functional
[12] = Cytotoxicity against human 6647 cells at 30 uM assessed as cell proliferation rate measured after 72 hrs by MTT assay relative to control; format: functional
HCT-116 [13] = experiment: Anticlonogenic activity against human HCT-116 cells assessed as reduction of cell survival at 0.5 to 20 uM measured after 10 days by SRB staining clonogenic survival assay; format: functional, cell-based; settings: dose 0.5-20 µM, time 10.0 day
TC-71 = experiment: Anticlonogenic activity against human TC71 cells assessed as reduction of cell survival at 0.5 to 20 uM measured after 10 days by SRB staining clonogenic survival assay; format: functional, cell-based; settings: dose 0.5-20 µM, time 10.0 day
[14] = AUC in CD-1 mouse at 10 mg/kg iv measured by UPLC-MS/MS method; format: ADME, organism-based; set-up: dose 10 mg/kg; settings: in vivo
[15] = AUC (infinity) in CD-1 mouse at 10 mg/kg iv measured by UPLC-MS/MS method; format: ADME, organism-based; set-up: time infinity, route intravenous, dose 10 mg/kg; settings: in vivo
[16] = Clearance in CD-1 mouse at 10 mg/kg iv measured by UPLC-MS/MS method; format: ADME, organism-based; settings: in vivo
[17] = Half life in CD-1 mouse at 10 mg/kg iv measured by UPLC-MS/MS method; format: ADME, organism-based; settings: in vivo
[18] = Volume of distribution in CD-1 mouse at 10 mg/kg iv measured by UPLC-MS/MS method; format: ADME, organism-based; settings: in vivo
[19] = Cmax in CD-1 mouse at 10 mg/kg iv measured by UPLC-MS/MS method; format: ADME, organism-based; set-up: route intravenous, dose 10 mg/kg; settings: in vivo
[20] = Drug uptake in human […] cell at 1.5 uM measured with in 5 min by UPLC-MS/MS analysis; format: ADME, tissue-based
[21] = Drug uptake in human […] cell at 1.5 uM measured upto 120 min by UPLC-MS/MS analysis; format: ADME, tissue-based; settings: 2 h
SK-N-MC [22] = experiment: Inhibition of human Akt in human SK-N-MC cell assessed as inhibition of Akt phosphorylation at 1 uM measured after 30 min by Western blot analysis; format: tissue-based
[23] = biological target: Ribosomal protein S6 kinase alpha-3 (Homo sapiens) (UniProt P51812); experiment: Inhibition of human RSK2 in human SK-N-MC cell assessed as inhibition of RSK2 phosphorylation at 1 uM measured after 30 min by Western blot analysis; format: tissue-based
SK-N-MC [24] = experiment: Inhibition of MAPK signaling in human SK-N-MC cell assessed as decrease in phosphorylated ERK 1/2 at 1 uM measured after 30 min by Western blot analysis; format: tissue-based
SK-N-MC [25] = experiment: Upregulation of C-Myc protein expression level in human SK-N-MC cell at 1 uM incubated for 2 hrs by western blot analysis; format: functional, tissue-based
SK-N-MC [26] = experiment: Upregulation of p21 protein expression level in human SK-N-MC cell at 1 uM incubated for 2 hrs by western blot analysis; format: functional, tissue-based
SK-N-MC [27] = experiment: Upregulation of RB1 protein expression level in human SK-N-MC cell at 1 uM incubated for 2 hrs by western blot analysis; format: functional, tissue-based
SK-N-MC [28] = experiment: Upregulation of Cdc2 protein expression level in human SK-N-MC cell at 1 uM incubated for 2 hrs by western blot analysis; format: functional, tissue-based

Structure (SMILES): O=C(CCNC(=O)c1cccn(Cc2ccc(F)c(F)c2)c1=O)Nc1ccc2c(c1)/C(=C/c1cnc[nH]1)C(=O)N2
Activity [1]: < 25% | inhibition at 0.5 h, 10 µM [2]: > 90% | inhibition at 0.5 h, 10 µM [3]: > 90% | inhibition [4]: < 30% | inhibition [5]: < 30%

Structure (SMILES): Cc1ccc(C(=O)NCC(=O)Nc2ccc3c(c2)/C(=C/c2cnc[nH]2)C(=O)N3)c(=O)n1Cc1ccc(F)c(F)c1
Activity [1]: < 25% | inhibition at 0.5 h, 10 µM [2]: > 90% | inhibition at 0.5 h, 10 µM [3]: > 90% | inhibition [4]: < 30% | inhibition [5]: < 30%

AUC [14]: 4220 ng·h/mL | AUC [15]: 5720 ng·h/mL | CL [16]: 75 mL/h | t1/2 [17]: 1.5 h | Vd [18]: 0.37 L | Cmax [19]: 1300 ng/mL | Drug uptake [20]: 100 ng/mL | Drug uptake [21]: 800 ng/mL | inhibition [23]: Active | inhibition [4]: < 30% | inhibition [5]: < 30%
Structure (SMILES): O=C1Nc2ccc(NC(=O)[C@H](NC(=O)c3cccn(Cc4ccc(F)c(F)c4)c3=O)c3ccccc3)cc2/C1=C/c1cnc[nH]1 (stereo in doubt)
Activity [1]: < 25% | Emax at 30 µM (HCT-116 [6]): 60% | IC50 (MCF7): > 30 µM | IC50 (CAKI-1): > 30 µM | IC50 (786-0): > 30 µM | IC50 (IGROV-1): > 30 µM | IC50 (PC-3): > 30 µM | IC50 (HCT-116 [7]): 3.6 µM | IC50 (NCI-H69): > 30 µM | IC50 (NCI-H82): > 30 µM | IC50 (TC-32): > 30 µM | IC50 (SK-N-MC [8]): 3 µM | IC50 [9]: 4.8 µM | IC50 [10]: 16.9 µM | IC50 (A673): > 30 µM | Emax at 30 µM (SK-N-MC [11]): 75% | Emax at 30 µM [12]: 84% | Activity (HCT-116 [13]): Dose-Dependent Effect | Activity (TC-71): Dose-Dependent Effect | inhibition (SK-N-MC [22]): Active | inhibition (SK-N-MC [24]): Active | Activity (SK-N-MC [25]): Active | Activity (SK-N-MC [26]): Active | Activity (SK-N-MC [27]): Active | Activity (SK-N-MC [28]): Active

inhibition at 0.5 h, 10 µM [2]: < 45% | inhibition at 0.5 h, 10 µM [3]: < 45% | inhibition [4]: < 30% | inhibition [5]: < 30%
Structure (SMILES): Cc1c(Br)cc(C(=O)N[C@@H](C(=O)Nc2ccc3c(c2)/C(=C/c2cnc[nH]2)C(=O)N3)c2ccccc2)c(=O)n1Cc1ccc(F)c(F)c1
Activity [1]: < 25% | IC50 (MCF7): > 30 µM | IC50 (CAKI-1): > 30 µM | IC50 (786-0): > 30 µM | IC50 (IGROV-1): > 30 µM | IC50 (PC-3): > 30 µM | IC50 (HCT-116 [7]): > 30 µM | IC50 (NCI-H69): > 30 µM | IC50 (NCI-H82): > 30 µM | IC50 (TC-32): > 30 µM | IC50 (SK-N-MC [8]): > 30 µM | IC50 [9]: > 30 µM | IC50 [10]: > 30 µM
